# Experimental data: US6903052B2, “Nematicidal compositions and methods” (Divergence, Inc., priority 2002, dated 2005)
# Assays:
# [1] = tested on: root knot nematodes (Meloidogyne spp.); test: Nematicidal activity against root knot nematodes, summary statement; format: cell-based; conditions: concentration of 0.1%
# Protocol: (§1) Meloidogyne incognita and javanica were prepared from tomato roots. The roots were bleached and the debris was separated from the J2 larvae and eggs by filtration followed by sucrose density gradient centrifugation. Eggs were hatched over 4 days at 15° C. and the J2 larvae were collected by passage though a filter, followed by centrifugation.
# (§2) Nematodes and emulsions were incubated with shaking at room temperature for 48 hours. The contents of each well were transferred to a small spot on individual NGM plates lacking bacteria. About 24 hours after the transfer to plates, worms on and off the inoculation spot were counted as not viable or viable, respectively. Worms were considered viable if they had crawled away from the inoculation spot, or if they were moving. Worms were considered non-viable if they remained at the inoculation spot.
# M. incognita [2] = test: Nematicidal activity of fatty acid methyl ester emulsions against root knot nematode J2 larvae (Example 6); format: cell-based, Meloidogyne incognita; conditions: 0.1% emulsion; 48 hours incubation, counted about 24 hours after transfer to plates
# Protocol: (§3) Fatty acid methyl ester emulsions were prepared following the teachings of Kim et al (U.S. Pat. No. 5,698,592). Briefly, 1 ml 1% stock solution emulsions were prepared by mixing 10 μl of fatty acid methyl ester with 20 μl of the surfactant Igepal CO 630 in a 1.5 ml eppendorf tube. After careful mixing of fatty acid and Igepal CO 630, 850 μl of ddH20 was added and mixed by gentle pipetting until a homogeneous solution was obtained. Finally, 120 μl of pure isopropanol was added and mixed by gentle pipetting. This stock solution was then used to produce various fatty acid methyl ester dilution emulsions in 24-well plate assays.
# as §1, §2
# [3] = tested on: everted hamster jejunal and ileal segments; conditions: Gaginella et al. (1975); cited from earlier work
# C. elegans [4] = test: Nematicidal activity of emulsions made with cyclodextrins (replacing isopropanol) against C. elegans; format: cell-based, Caenorhabditis elegans; conditions: igepal CO 630 / 2-Hydroxypropyl-β-Cyclodextrin emulsion
# Text: In an effort to increase the bioavailability of fatty acid methyl esters in emulsions, isopropanol was replaced with one of two cyclodextrins (Methyl-β-Cyclodextrin or 2-Hydroxypropyl-β-Cyclodextrin).
# C. elegans [5] = test: Nematicidal activity of fatty acid methyl ester emulsions, spectrum (Example 8); format: cell-based, Caenorhabditis elegans; conditions: C. elegans mixed stage
# Protocol: (§4) Briefly, the indicated fatty acid emulsions were added and rapidly mixed by swirling. Nematode viability was scored by visual observation and motility assays 24 hours following addition of emulsions (48 hours for plant parasitic nematodes Meloidogyne and Heterodera species). The fatty acid emulsions tested were methyl esters of nonanoic (pelargonic) acid, ricinelaidic acid, ricinoleic acid, vernolic acid, linoleic acid, and oleic acid. […] Results shown are mean % values obtained from multiple independent experiments
# (§5) The Caenorhabiditis elegans were mixed stage populations. Similar effects seen on several other free-living nematode species. The Parastrongyloides trichosuri (parasite of Australian bushtail possum) were dauer-like infective 3rd stage larva. Similar effects are also seen against free-living stages. The Meloidogyne incognita and Meloidogyne javanica (root knot nematode) were 2nd stage juveniles (dauer-like infective stage). The Heterodera glycines (soybean cyst nematode) were 2nd stage juveniles (dauer-like infective stage). Finally, the Pratylenchus scribneri (corn lesion nematode) were mixed stage populations.
# M. incognita [6] = test: as above; format: cell-based, Meloidogyne incognita; conditions: M. incognita 2nd stage juveniles, scored at 48 hours
# Protocol: as §4, §5
# C. elegans [7] = test: Nematicidal activity of single fatty acid methyl ester emulsions against Caenorhabditis elegans (Example 4); format: cell-based
# Protocol: Mixed stage Caenorhabditis elegans were washed off plates seeded with OP50 bacteria using M9 solution. 250 μl of the M9 solution, which contained about 50 worms, was pipetted into each well of a 24-well plate.
# as §3
# To each well, fatty acid emulsions or control emulsions were added and rapidly mixed by swirling. Nematode viability was scored by visual observation and motility assays at various time points 24 hours following addition of emulsions or controls. The fatty acid emulsions tested were methyl esters of nonanoic (pelargonic) acid, ricinoleic acid, vernolic acid, linoleic acid, oleic acid, and control emulsions lacking fatty acids.
# tomato seedlings = test: Phytotoxicity evaluation on tomato seedlings; format: in vivo; conditions: 250 μl of 1% emulsion applied to stem-media interface of two-week seedlings
# Protocol: Sterilized tomato seeds were germinated in magenta jars containing Gamborg's agar media. After two weeks of growth, seedlings were treated with 250 μl of 1% fatty acid methyl ester emulsion (nonanoic acid, ricinoleic acid, ricinelaidic acid, oleic acid, or a control emulsion lacking any fatty acid), applied directly to the stem-media interface. Tomato seedlings were scored at various times after application of emulsions.
# M. javanica = test: Nematicidal activity of fatty acid methyl ester emulsions against root knot nematode J2 larvae (Example 6); format: cell-based, Meloidogyne javanica; conditions: 0.1% emulsion; 48 hours incubation, counted about 24 hours after transfer to plates
# Protocol: as §3, §1, §2
# C. elegans [8] = test: Nematicidal activity of emulsions made with Tween-20 (replacing Igepal CO 630) against C. elegans; format: cell-based, Caenorhabditis elegans; conditions: Tween-20 emulsion
# Protocol: Some nematodes assayed as described in Example 9 lacked tolerance to emulsions made with the surfactant Igepal CO 630. For this reason some assays were repeated with Tween-20-based emulsions.
# as §3, with “Briefly,” for “Fatty acid methyl ester emulsions were prepared following the teachings of Kim et al (U.S. Pat. No. 5,698,592). Briefly,”, “Tween-20” for “Igepal CO 630”, “Tween-20,” for “Igepal CO 630,”
# B. malayi = test: Nematicidal activity of tween-based emulsions against microfilarial nematodes; format: cell-based, Brugia malayi
# Protocol: To each well, tween-based fatty acid emulsions were added and rapidly mixed by swirling. Nematode microfilaria viability was scored by visual observation of motility at 24 and 48 hours following addition of emulsions. The fatty acid emulsions tested were methyl esters of ricinoleic acid, vernolic acid, ricinelaidic acid, oleic acid, and control emulsions lacking fatty acids. The results of this study are presented in Table 7 as the percentage of non-motile microfilaria 24 hours after inoculation and in Table 8 as the percentage of non-motile microfilaria 48 hours after inoculation
structure (smiles),measurement,setting,value
"CCCCCCC(O)C/C=C\CCCCCCCC(=O)OC (stereo not drawn) [Ricinoleic Acid (C18-methyl ester), 12-hydroxy-cis-9-octadecenoic acid methyl ester]",Nematicidal activity (in words),[1],significant nematicidal activity
same,M. incognita (% not viable),M. incognita [2],95%
same,Effect on water (and electrolyte) absorption,[3],ineffective at suppressing water absorption
same,% Worm Death (24 hr),C. elegans [4]; 0.001% solution,˜50%
same,% Worm Death (24 hr),C. elegans [4]; 0.01% solution,>80%
same,% Worm Death (24 hr),C. elegans [4]; 0.1% solution,>95%
same,% Worm Death (24 hr),C. elegans [5]; 0.001% solution,30%
same,% Worm Death (24 hr),C. elegans [5]; 0.01% solution,80%
same,% Worm Death (24 hr),C. elegans [5]; 0.1% solution,100%
same,% Worm Death (24 hr),M. incognita [6]; 0.01% solution,83%
same,% Worm Death (24 hr),M. incognita [6]; 0.1% solution,95%
same,Percentage of Worm Death,"C. elegans [7]; 0.003% emulsion, 1 hr",60%
same,Percentage of Worm Death,"C. elegans [7]; 0.003% emulsion, 6 hr",60%
same,Percentage of Worm Death,"C. elegans [7]; 0.003% emulsion, 24 hr",60%
same,Percentage of Worm Death,"C. elegans [7]; 0.1% emulsion, 1 hr",90%
same,Percentage of Worm Death,"C. elegans [7]; 0.1% emulsion, 6 hr",90%
same,Percentage of Worm Death,"C. elegans [7]; 0.1% emulsion, 24 hr",90%
same,Nematicidal activity (in words),C. elegans [7]; concentration of 0.1%,strongly nematicidal
same,Time before strong killing effects are apparent,"C. elegans [7]; emulsion, C. elegans",up to 30 minutes
same,Visible effects on tomato seedlings,tomato seedlings,none of the tomatoes treated with the other fatty acid methyl ester emulsions showed visible effects
same,M. javanica (% not viable),M. javanica,60%
same,% Worm Death (24 hr),C. elegans [8]; 0.001% solution,40%
same,% Worm Death (24 hr),C. elegans [8]; 0.01% solution,100%
same,% Worm Death (24 hr),C. elegans [8]; 0.1% solution,100%
same,percentage of non-motile microfilaria,"B. malayi; 24 hrs post-inoculation, 0.0008%",0%
same,percentage of non-motile microfilaria,"B. malayi; 24 hrs post-inoculation, 0.0016%",24.7%
same,percentage of non-motile microfilaria,"B. malayi; 24 hrs post-inoculation, 0.003%",100%
same,percentage of non-motile microfilaria,"B. malayi; 24 hrs post-inoculation, 0.005%",100%
same,percentage of non-motile microfilaria,"B. malayi; 24 hrs post-inoculation, 0.0067%",100%
same,percentage of non-motile microfilaria,"B. malayi; 24 hrs post-inoculation, 0.008%",100%
same,percentage of non-motile microfilaria,"B. malayi; 48 hrs post-inoculation, 0.0008%",0%
same,percentage of non-motile microfilaria,"B. malayi; 48 hrs post-inoculation, 0.0016%",64.2%
same,percentage of non-motile microfilaria,"B. malayi; 48 hrs post-inoculation, 0.003%",100%
same,percentage of non-motile microfilaria,"B. malayi; 48 hrs post-inoculation, 0.005%",100%
same,percentage of non-motile microfilaria,"B. malayi; 48 hrs post-inoculation, 0.0067%",100%
same,percentage of non-motile microfilaria,"B. malayi; 48 hrs post-inoculation, 0.008%",100%
same,Microfilarialcidal activity (in words),B. malayi; tween-based emulsions,strong microfilarialcidal activity
